Measured values reported in US20050239656A1, “Pyridine compounds or salts thereof and herbicides containing the same” (priority 2002, published 2005).

Experiments:
barnyardgrass [1] = test: Test Example 1: foliage treatment, upland pot test; type: in vivo, Echinochloa crus-galli L.; conditions: active ingredient 1000 g/ha, observed 18th to 23rd day, 0 = non-treated, 100 = complete kill
Method in brief: (§1)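 Pots of upland field soil were sown and sprayed post-emergence at soybean 0.1–0.4, wheat 1.3–2.4, rice 1.2–2.6 and barnyardgrass 1.3–2.8 leaf stages. Formulations were diluted in water at 500 L/ha with 0.1% (v/v) spreader. Growth control (0 = untreated, 100 = complete kill) was judged by eye 18–23 days later.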

crabgrass [2] = test: Test Example 1: foliage treatment, upland pot test; type: in vivo, Digitaria sanguinalis L.; conditions: active ingredient 1000 g/ha, observed 18th to 23rd day, 0 = non-treated, 100 = complete kill
green foxtail [3] = test: Test Example 1: foliage treatment, upland pot test; type: in vivo, Setaria viridis L.; conditions: active ingredient 1000 g/ha, observed 18th to 23rd day, 0 = non-treated, 100 = complete kill
redroot pigweed [4] = test: Test Example 1: foliage treatment, upland pot test; type: in vivo, Amaranthus retroflexus L.; conditions: active ingredient 1000 g/ha, observed 18th to 23rd day, 0 = non-treated, 100 = complete kill
prickly sida [5] = test: Test Example 1: foliage treatment, upland pot test; type: in vivo, Sida spinosa L.; conditions: active ingredient 1000 g/ha, observed 18th to 23rd day, 0 = non-treated, 100 = complete kill
velvetleaf [6] = test: Test Example 1: foliage treatment, upland pot test; type: in vivo, Abutilon theophrasti MEDIC.; conditions: active ingredient 1000 g/ha, observed 18th to 23rd day, 0 = non-treated, 100 = complete kill
rice [7] = test: Test Example 1: foliage treatment, upland pot test; type: in vivo, Oryza sativa L.; conditions: crop, active ingredient 1000 g/ha, observed 18th to 23rd day, 0 = non-treated, 100 = complete kill
Method in brief: as §1

wheat [8] = test: Test Example 1: foliage treatment, upland pot test; type: in vivo, Triticum spp.; conditions: crop, active ingredient 1000 g/ha, observed 18th to 23rd day, 0 = non-treated, 100 = complete kill
Method in brief: as §1

corn [9] = test: Test Example 1: foliage treatment, upland pot test; type: in vivo, Zea mays L.; conditions: crop, active ingredient 1000 g/ha, observed 18th to 23rd day, 0 = non-treated, 100 = complete kill
Method in brief: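 Corn seeds were sown in upland field soil held in a 1/170,000 ha pot and grown to the 2.1 to 3.2 leaf stage. A wettable powder or emulsifiable concentrate of the test compound was diluted with water at 500 L/ha, given 0.1% (v/v) agricultural spreader, and sprayed onto the foliage with a small sprayer. Growth controlling degree (%) was scored visually 18th to 23rd days later, from 0 (non-treated) to 100 (complete kill).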

soybean [10] = test: Test Example 1: foliage treatment, upland pot test; type: in vivo, Glycine max Merr.; conditions: crop, active ingredient 1000 g/ha, observed 18th to 23rd day, 0 = non-treated, 100 = complete kill
Method in brief: as §1

barnyardgrass [11] = test: Test Example 2: soil surface treatment, upland pot test; type: in vivo, Echinochloa crus-galli L.; conditions: active ingredient 1000 g/ha, observed 20th to 28th day, 0 = non-treated, 100 = complete kill
Method in brief: (§2)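 Visual growth-control ratings, from 0 (like the non-treated plot) to 100 (total kill), were made between days 20 and 28 after a soil-surface spray. The compound, formulated as wettable powder or emulsifiable concentrate and diluted at 1,500 L/ha, went on one day post-sowing in upland-soil pots of 1/170,000 ha.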

crabgrass [12] = test: as above; type: in vivo, Digitaria sanguinalis L.; conditions: active ingredient 1000 g/ha, observed 20th to 28th day
Method in brief: as §2

green foxtail [13] = test: as above; type: in vivo, Setaria viridis L.; conditions: active ingredient 1000 g/ha, observed 20th to 28th day
Method in brief: as §2

redroot pigweed [14] = test: as above; type: in vivo, Amaranthus retroflexus L.; conditions: active ingredient 1000 g/ha, observed 20th to 28th day
Method in brief: as §2

prickly sida [15] = test: as above; type: in vivo, Sida spinosa L.; conditions: active ingredient 1000 g/ha, observed 20th to 28th day
Method in brief: as §2

velvetleaf [16] = test: as above; type: in vivo, Abutilon theophrasti MEDIC.; conditions: active ingredient 1000 g/ha, observed 20th to 28th day
Method in brief: as §2

rice [17] = test: as above; type: in vivo, Oryza sativa L.; conditions: active ingredient 1000 g/ha, observed 20th to 28th day
Method in brief: as §2

wheat [18] = test: as above; type: in vivo, Triticum spp.; conditions: active ingredient 1000 g/ha, observed 20th to 28th day
Method in brief: as §2

corn [19] = test: as above; type: in vivo, Zea mays L.; conditions: active ingredient 1000 g/ha, observed 20th to 28th day
Method in brief: as §2

soybean [20] = test: as above; type: in vivo, Glycine max Merr.; conditions: active ingredient 1000 g/ha, observed 20th to 28th day
Method in brief: as §2

japanese bulrush = test: Test Example 3: paddy pot test, application under submerged conditions; type: in vivo, Scirpus juncoides; conditions: active ingredient 500 g/ha; submerged application at 0.5 leaf stage; visually observed 14 days after application; 0 = non-treated, 100 = complete kill
Method in brief: (§3)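 Seeds were sown in flooded paddy soil (0.5–1 cm water), wapato tubers were planted 1–2 days later, and water was then held at 3–4 cm. Diluted wettable powder or emulsifiable concentrate was pipetted into the water at the 0.5 leaf or primary leaf stage. Growth control was visually scored at 14 days (0–100%).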

japanese ribbon wapato = test: as above; type: in vivo, Sagittaria pygniaea; conditions: active ingredient 500 g/ha; submerged application at primary leaf stage; visually observed 14 days after application; 0 = non-treated, 100 = complete kill
Method in brief: as §3

rice (var. Nihonbare) = test: Test Example 3: paddy pot test, transplanted rice; type: in vivo, Oryza sativa L.; conditions: active ingredient 500 g/ha, applied 4th day after transplantation, visually observed 21st day after application, 0 = non-treated, 100 = complete kill
Method in brief: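 Rice (2-leaf stage) was transplanted 3 cm deep into puddled, leveled paddy soil under 3–4 cm flooding. On day 4 after transplanting, diluted wettable powder or emulsifiable concentrate was pipetted onto the water at a predetermined active-ingredient dose. Growth control (0 = untreated, 100 = complete kill) was scored visually 21 days later.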

In the case of `CC(C)C(c1cnccc1C(F)(F)F)N(C)C(=O)Cc1ccccc1` (stereo not drawn) [I-1, N-methyl-N-[2-methyl-1-(4-trifluoromethylpyridin-3-yl)propyl]phenylacetamide], the “Growth controlling degree (%) Barnyardgrass” value (barnyardgrass [1]) is reported as 80%, the “Growth controlling degree (%) Crabgrass” value (crabgrass [2]) is reported as 80% and the “Growth controlling degree (%) Green foxtail” value (green foxtail [3]) is reported as 70%. For the same compound, the “Growth controlling degree (%) Redroot pigweed” value (redroot pigweed [4]) was 70%, the “Growth controlling degree (%) Prickly sida” value (prickly sida [5]) was 80% and the “Growth controlling degree (%) Velvetleaf” value (velvetleaf [6]) was 90%. The “Growth controlling degree (%) Rice” value (rice [7]) was 60%, the “Growth controlling degree (%) wheat” value (wheat [8]) was 60% and the “Growth controlling degree (%) Corn” value (corn [9]) was 70%. For the same compound, the “Growth controlling degree (%) Soybean” value (soybean [10]) was 80%, the “Growth controlling degree (%) Barnyardgrass” value (barnyardgrass [11]) was 90% and the “Growth controlling degree (%) Crabgrass” value (crabgrass [12]) was 100%. For the same compound, the “Growth controlling degree (%) Green foxtail” value (green foxtail [13]) was 100%, the “Growth controlling degree (%) Redroot pigweed” value (redroot pigweed [14]) was 80% and the “Growth controlling degree (%) Prickly sida” value (prickly sida [15]) was 70%. For the same compound, the “Growth controlling degree (%) Velvetleaf” value (velvetleaf [16]) was 80%, the “Growth controlling degree (%) Rice” value (rice [17]) was 80% and the “Growth controlling degree (%) wheat” value (wheat [18]) was 50%. The “Growth controlling degree (%) Corn” value (corn [19]) was 70%, the “Growth controlling degree (%) Soyabean” value (soybean [20]) was 50% and the “Growth controlling degree (%) Japanese bulrush” value (japanese bulrush) was 98%. For the same compound, the “Growth controlling degree (%) Japanese ribbon wapato” value (japanese ribbon wapato) was 95%, the “Growth controlling degree (%) Rice” value (rice (var. Nihonbare)) was 60% and the melting point was 71.2 °C.
